Measured values taken from ChEMBL document CHEMBL1152085, “Novel 3-deoxy-3-descladinosyl-6-O-methyl erythromycin a analogues. Synthesis and in vitro activity” (1997).
≈ marks a conversion by molar mass, not a printed value.

How the values were obtained:
Format in all cases: functional
Enterococcus faecium [1] = test: Tested in vitro for minimum inhibitory concentration to produce antibacterial activity against Enterococcus faecium ATCC 8043
Enterococcus faecium [2] = test: Tested in vitro for minimum inhibitory concentration to produce antibacterial activity against Enterococcus faecium ATCC 8043 in presence of erythromycin A
Escherichia coli [3] = test: Tested in vitro for minimum inhibitory concentration to produce antibacterial activity against Escherichia coli JUHL
Escherichia coli [4] = test: Tested in vitro for minimum inhibitory concentration to produce antibacterial activity against Escherichia coli JUHL in presence of erythromycin A
Escherichia coli [5] = test: Tested in vitro for minimum inhibitory concentration to produce antibacterial activity against Escherichia coli SS
Escherichia coli [6] = test: Tested in vitro for minimum inhibitory concentration to produce antibacterial activity against Escherichia coli SS in presence of erythromycin A
[7] = tested on: Staphylococcus epidermidis; test: Tested in vitro for minimum inhibitory concentration to produce antibacterial activity against Staphylococcus epidermidis 3519
[8] = tested on: Staphylococcus epidermidis; test: Tested in vitro for minimum inhibitory concentration to produce antibacterial activity against Staphylococcus epidermidis 3519 in presence of erythromycin A
Streptococcus pyogenes [9] = test: Tested in vitro for minimum inhibitory concentration to produce antibacterial activity against Streptococcus pyogenes 930
Streptococcus pyogenes [10] = test: Tested in vitro for minimum inhibitory concentration to produce antibacterial activity against Streptococcus pyogenes 930 in presence of erythromycin A
Streptococcus pyogenes [11] = test: Tested in vitro for minimum inhibitory concentration to produce antibacterial activity against Streptococcus pyogenes EES61
Streptococcus pyogenes [12] = test: Tested in vitro for minimum inhibitory concentration to produce antibacterial activity against Streptococcus pyogenes EES61 in presence of erythromycin A
Streptococcus pyogenes [13] = test: Tested in vitro for minimum inhibitory concentration to produce antibacterial activity against Streptococcus pyogenes PIU 2548
Streptococcus pyogenes [14] = test: Tested in vitro for minimum inhibitory concentration to produce antibacterial activity against Streptococcus pyogenes PIU 2548 in presence of erythromycin A
Streptococcus agalactiae [15] = test: Tested in vitro for minimum inhibitory concentration to produce antibacterial activity against Streptococcus agalactiae CMX 508
Streptococcus agalactiae [16] = test: Tested in vitro for minimum inhibitory concentration to produce antibacterial activity against Streptococcus agalactiae CMX 508 in presence of erythromycin A
Staphylococcus aureus [17] = test: Tested in vitro for minimum inhibitory concentration to produce antibacterial activity against Staphylococcus aureus 1775
Staphylococcus aureus [18] = test: Tested in vitro for minimum inhibitory concentration to produce antibacterial activity against Staphylococcus aureus 1775 in presence of erythromycin A
Staphylococcus aureus [19] = test: Tested in vitro for minimum inhibitory concentration to produce antibacterial activity against Staphylococcus aureus A-5278
Staphylococcus aureus [20] = test: Tested in vitro for minimum inhibitory concentration to produce antibacterial activity against Staphylococcus aureus A-5278 in presence of erythromycin A
Staphylococcus aureus [21] = test: Tested in vitro for minimum inhibitory concentration to produce antibacterial activity against Staphylococcus aureus A5177
Staphylococcus aureus [22] = test: Tested in vitro for minimum inhibitory concentration to produce antibacterial activity against Staphylococcus aureus A5177 in presence of erythromycin A
Staphylococcus aureus [23] = test: Tested in vitro for minimum inhibitory concentration to produce antibacterial activity against Staphylococcus aureus ATCC 6538P
Staphylococcus aureus [24] = test: Tested in vitro for minimum inhibitory concentration to produce antibacterial activity against Staphylococcus aureus ATCC 6538P in presence of erythromycin A
Staphylococcus aureus [25] = test: Tested in vitro for minimum inhibitory concentration to produce antibacterial activity against Staphylococcus aureus CMX 553
Staphylococcus aureus [26] = test: Tested in vitro for minimum inhibitory concentration to produce antibacterial activity against Staphylococcus aureus CMX 553 in presence of erythromycin A
Staphylococcus aureus [27] = test: Tested in vitro for minimum inhibitory concentration to produce antibacterial activity against Staphylococcus aureus CMX 642A
Staphylococcus aureus [28] = test: Tested in vitro for minimum inhibitory concentration to produce antibacterial activity against Staphylococcus aureus CMX 642A in presence of erythromycin A
Streptococcus equinus [29] = test: Tested in vitro for minimum inhibitory concentration to produce antibacterial activity against Streptococcus bovis A-5169
Streptococcus equinus [30] = test: Tested in vitro for minimum inhibitory concentration to produce antibacterial activity against Streptococcus bovis A-5169 in presence of erythromycin A
Staphylococcus aureus [31] = test: Tested in vitro for minimum inhibitory concentration to produce antibacterial activity against Staphylococcus aureus NCTC-10649M
Staphylococcus aureus [32] = test: Tested in vitro for minimum inhibitory concentration to produce antibacterial activity against Staphylococcus aureus NCTC-10649M in presence of erythromycin A

SMILES	MIC (Enterococcus faecium [1]) [µg/mL]	MIC (Enterococcus faecium [2]) [µg/mL]	MIC (Escherichia coli [3]) [µg/mL]	MIC (Escherichia coli [4]) [µg/mL]	MIC (Escherichia coli [5]) [µg/mL]	MIC (Escherichia coli [6]) [µg/mL]	MIC [7] [µg/mL]	MIC [8] [µg/mL]	MIC (Streptococcus pyogenes [9]) [µg/mL]	MIC (Streptococcus pyogenes [10]) [µg/mL]	MIC (Streptococcus pyogenes [11]) [µg/mL]	MIC (Streptococcus pyogenes [12]) [µg/mL]	MIC (Streptococcus pyogenes [13]) [µg/mL]	MIC (Streptococcus pyogenes [14]) [µg/mL]	MIC (Streptococcus agalactiae [15]) [µg/mL]	MIC (Streptococcus agalactiae [16]) [µg/mL]	MIC (Staphylococcus aureus [17]) [µg/mL]	MIC (Staphylococcus aureus [18]) [µg/mL]	MIC (Staphylococcus aureus [19]) [µg/mL]	MIC (Staphylococcus aureus [20]) [µg/mL]	other results
CC[C@H]1OC(=O)[C@H](C)C[C@H](C)[C@@H](O[C@@H]2O[C@H](C)C[C@H](N(C)C)[C@H]2O)[C@](C)(OC)C[C@@H](C)C(=O)/C(C)=C/[C@]1(C)O	> 100	0.2	> 100	50	> 100	0.78	> 100	0.39	> 100	12.5	12.5 (≈ 22.5 µM)	0.01	> 100	12.5	25 (≈ 45 µM)	0.02	> 100	> 100	> 100	> 100	MIC (Staphylococcus aureus [21]): > 100 µg/mL; MIC (Staphylococcus aureus [22]): 3.1 µg/mL; MIC (Staphylococcus aureus [23]): > 100 µg/mL; MIC (Staphylococcus aureus [24]): 0.39 µg/mL; MIC (Staphylococcus aureus [25]): > 100 µg/mL; MIC (Staphylococcus aureus [26]): 0.39 µg/mL; MIC (Staphylococcus aureus [27]): > 100 µg/mL; MIC (Staphylococcus aureus [28]): 0.39 µg/mL; MIC (Streptococcus equinus [29]): > 100 µg/mL; MIC (Streptococcus equinus [30]): 0.2 µg/mL; MIC (Staphylococcus aureus [31]): > 100 µg/mL; MIC (Staphylococcus aureus [32]): 0.39 µg/mL
CC[C@H]1OC(=O)[C@H](C)[C@@H](O[C@H]2C[C@@](C)(OC)[C@@H](O)[C@H](C)O2)[C@H](C)[C@@H](O[C@@H]2O[C@H](C)C[C@H](N(C)C)[C@H]2O)[C@](C)(OC)C[C@@H](C)C(=O)[C@H](C)[C@@H](O)[C@]1(C)O [CLARITHROMYCIN]	0.05 (≈ 0.0668 µM)	0.05	100 (≈ 134 µM)	50	0.39 (≈ 0.521 µM)	0.39	0.12 (≈ 0.16 µM)	0.03	> 100	> 100	0.01 (≈ 0.0134 µM)	0.01	8 (≈ 10.7 µM)	8	0.02 (≈ 0.0267 µM)	0.02	> 100	> 100	> 100	> 100	MIC (Staphylococcus aureus [21]): 1.56 µg/mL (≈ 2.09 µM); MIC (Staphylococcus aureus [22]): 3.1 µg/mL; MIC (Staphylococcus aureus [23]): 0.2 µg/mL (≈ 0.267 µM); MIC (Staphylococcus aureus [24]): 0.2 µg/mL; MIC (Staphylococcus aureus [25]): 0.12 µg/mL (≈ 0.16 µM); MIC (Staphylococcus aureus [26]): 0.12 µg/mL; MIC (Staphylococcus aureus [27]): 0.03 µg/mL (≈ 0.0401 µM); MIC (Staphylococcus aureus [28]): 0.03 µg/mL; MIC (Streptococcus equinus [29]): 0.01 µg/mL (≈ 0.0134 µM); MIC (Streptococcus equinus [30]): 0.01 µg/mL; MIC (Staphylococcus aureus [31]): 0.03 µg/mL (≈ 0.0401 µM); MIC (Staphylococcus aureus [32]): 0.03 µg/mL
